Experimental data from ChEMBL document CHEMBL1136455, “The synthesis and antibacterial activity of 1,3,4-thiadiazole phenyl oxazolidinone analogues” (Bioorg Med Chem Lett, 2003).
Converted amounts (≈) assume the structure as drawn.

Columns and labels:
Mus musculus [1] = assay: In vivo efficacy to protect the Staphylococcus aureus infected mouse and the activity was reported using Linezolid as a control with ED50 = 3.8; type: functional
Staphylococcus aureus [2] = assay: In vitro antibacterial activity against methicillin resistant Staphylococcus aureus UC 12673 (MRSA); type: functional
Streptococcus pneumoniae = assay: In vitro antibacterial activity against penicillin sensitive Streptococcus pneumoniae UC 9912; type: functional
Moraxella catarrhalis = assay: In vitro antibacterial activity against Moraxella catarrhalis 30607; type: functional
Enterococcus faecalis = assay: In vitro antibacterial activity against vancomycin resistant Enterococcus faecalis UC 9217 (VREA); type: functional
Haemophilus influenzae = assay: In vitro antibacterial activity against ampicillin resistant Haemophilus influenzae 30063 (B-lactamase +); type: functional
Staphylococcus aureus [3] = assay: In vitro antibacterial activity against methicillin susceptible Staphylococcus aureus UC 9213 (MSSA); type: functional
[4] = system: Staphylococcus epidermidis; assay: In vitro antibacterial activity against methicillin resistant Staphylococcus epidermidis UC 12084; type: functional
Mus musculus [5] = assay: In vivo efficacy to protect the Staphylococcus aureus infected mouse and the activity was reported using Linezolid as a control with ED50 = 3.1; type: functional
Mus musculus [6] = assay: In vivo efficacy to protect the Staphylococcus aureus infected mouse and the activity was reported using Linezolid as a control with ED50 = 5; type: functional
Mus musculus [7] = assay: In vivo efficacy to protect the Staphylococcus aureus infected mouse and the activity was reported using Linezolid as a control with ED50 =[…]; type: functional
[8] = system: Staphylococcus epidermidis; assay: In vitro antibacterial activity against methicillin resistant Staphylococcus epidermidis UC 12084; range is 1-2; type: functional
[9] = Clearance in rat; type: ADME, organism-based; conditions: in vivo
[10] = Bioavailability in rat; type: ADME, organism-based; conditions: in vivo
Mus musculus [11] = assay: In vivo efficacy to protect the Staphylococcus aureus infected mouse and the activity was reported using Linezolid as a control with ED50 = 8; type: functional
Mus musculus [12] = assay: In vivo efficacy to protect the Staphylococcus aureus infected mouse and the activity was reported using Linezolid as a control with ED50 = 1.8; type: functional
Mus musculus [13] = assay: In vivo efficacy to protect the Staphylococcus aureus infected mouse and the activity was reported using Linezolid as a control with ED50 = 3.5; type: functional
Mus musculus [14] = assay: In vivo efficacy to protect the Staphylococcus aureus infected mouse and the activity was reported using Linezolid as a control with ED50 = 2.2
Mus musculus [15] = assay: In vivo efficacy to protect the Staphylococcus aureus infected mouse and the activity was reported using Linezolid as a control with ED50 = 2.9; type: functional

SMILES | ED50 (Mus musculus [1]) [mg/kg] | MIC (Staphylococcus aureus [2]) [µg/mL] | MIC (Streptococcus pneumoniae) [µg/mL] | MIC (Moraxella catarrhalis) [µg/mL] | MIC (Enterococcus faecalis) [µg/mL] | MIC (Haemophilus influenzae) [µg/mL] | MIC (Staphylococcus aureus [3]) [µg/mL] | MIC [4] [µg/mL] | ED50 (Mus musculus [5]) [mg/kg] | ED50 (Mus musculus [6]) [mg/kg] | ED50 (Mus musculus [7]) [mg/kg] | MIC [8] [µg/mL] | clearance [9] [mL/min/kg] | bioavailability [10] [%] | ED50 (Mus musculus [11]) [mg/kg] | ED50 (Mus musculus [12]) [mg/kg] | ED50 (Mus musculus [13]) [mg/kg] | ED50 (Mus musculus [14]) [mg/kg] | ED50 (Mus musculus [15]) [mg/kg]
CC(=O)NC[C@H]1CN(c2ccc(-c3nnc(O)s3)c(F)c2)C(=O)O1 | 13 | 1 (≈ 2.84 µM) | 0.125 (≈ 0.355 µM) | 4 (≈ 11.4 µM) | 1 (≈ 2.84 µM) | 4 (≈ 11.4 µM) | 1 (≈ 2.84 µM) | 0.5 (≈ 1.42 µM) |  |  |  |  |  |  |  |  |  |  | 
CC(=O)NC[C@H]1CN(c2ccc(-c3nnc(CO)s3)c(F)c2)C(=O)O1 |  | 1 (≈ 2.73 µM) | < 0.125 | 2 (≈ 5.46 µM) | 1 (≈ 2.73 µM) | 4 (≈ 10.9 µM) | 1 (≈ 2.73 µM) | 0.25 (≈ 0.682 µM) | 8.7 |  |  |  |  |  |  |  |  |  | 
CC(=O)NC[C@H]1CN(c2ccc(-c3nnc(CC/C(C)=N/O)s3)c(F)c2)C(=O)O1 |  | 2 (≈ 4.75 µM) | < 0.125 | 4 (≈ 9.49 µM) | 1 (≈ 2.37 µM) | 4 (≈ 9.49 µM) | 2 (≈ 4.75 µM) | 0.5 (≈ 1.19 µM) |  | > 20 |  |  |  |  |  |  |  |  | 
CC(=O)NC[C@H]1CN(c2ccc(-c3nnc(C[S+](C)[O-])s3)c(F)c2)C(=O)O1 (stereo partly specified) |  | 8 (≈ 19.4 µM) | 0.25 (≈ 0.606 µM) | 8 (≈ 19.4 µM) | 4 (≈ 9.7 µM) | 8 (≈ 19.4 µM) | 8 (≈ 19.4 µM) | 0.5 (≈ 1.21 µM) |  |  |  |  |  |  |  |  |  |  | 
CC(=O)NC[C@H]1CN(c2ccc(-c3nnc(C(N)=O)s3)c(F)c2)C(=O)O1 |  | 0.5 (≈ 1.32 µM) | 0.25 (≈ 0.659 µM) | 4 (≈ 10.5 µM) | 1 (≈ 2.64 µM) | 16 (≈ 42.2 µM) | 0.5 (≈ 1.32 µM) | 0.25 (≈ 0.659 µM) |  |  | 12.4 |  |  |  |  |  |  |  | 
CC(=O)NC[C@H]1CN(c2ccc(N3CCOCC3)c(F)c2)C(=O)O1 [LINEZOLID] |  |  |  | 8 (≈ 23.7 µM) |  | 16 (≈ 47.4 µM) |  |  |  |  |  | 1 (≈ 2.96 µM) |  |  |  |  |  |  | 
C/C(S)=N/C[C@H]1CN(c2ccc(-c3nnc(CN)s3)c(F)c2)C(=O)O1 |  |  | < 0.5 | < 0.5 | < 0.5 | < 0.5 | < 0.5 | < 0.5 |  |  |  |  | 34.3 | 14 | > 20 |  |  |  | 
CC(=O)NC[C@H]1CN(c2ccc(-c3nncs3)c(F)c2)C(=O)O1 |  | 1 (≈ 2.97 µM) | 0.25 (≈ 0.743 µM) | 4 (≈ 11.9 µM) | 1 (≈ 2.97 µM) | 4 (≈ 11.9 µM) | 1 (≈ 2.97 µM) | 0.25 (≈ 0.743 µM) |  |  |  |  |  |  |  | 2.2 |  |  | 
CCc1nnc(-c2ccc(N3C[C@H](CNC(C)=O)OC3=O)cc2F)s1 | 9.2 | 0.5 (≈ 1.37 µM) | 0.25 (≈ 0.686 µM) | 2 (≈ 5.49 µM) | 0.5 (≈ 1.37 µM) | 4 (≈ 11 µM) | 1 (≈ 2.74 µM) | 0.25 (≈ 0.686 µM) |  |  |  |  |  |  |  |  |  |  | 
CC(=O)NC[C@H]1CN(c2ccc(-c3nnc(C)s3)c(F)c2)C(=O)O1 |  | 0.5 (≈ 1.43 µM) | < 0.125 | 2 (≈ 5.71 µM) | 0.5 (≈ 1.43 µM) | 2 (≈ 5.71 µM) | 1 (≈ 2.85 µM) | < 0.125 |  |  |  |  |  |  |  |  | 6.2 |  | 
CC(=O)CCc1nnc(-c2ccc(N3C[C@H](CNC(C)=O)OC3=O)cc2F)s1 |  | 1 (≈ 2.46 µM) | < 0.125 | 4 (≈ 9.84 µM) | 0.5 (≈ 1.23 µM) | 4 (≈ 9.84 µM) | 1 (≈ 2.46 µM) | 0.25 (≈ 0.615 µM) |  |  |  |  |  |  |  |  |  | 7.6 | 
CC(=O)NC[C@H]1CN(c2ccc(-c3nnc(CC#N)s3)c(F)c2)C(=O)O1 |  | 1 (≈ 2.66 µM) | 0.25 (≈ 0.666 µM) | 4 (≈ 10.7 µM) | 1 (≈ 2.66 µM) | 4 (≈ 10.7 µM) | 2 (≈ 5.33 µM) | 0.25 (≈ 0.666 µM) |  |  |  |  |  |  |  |  |  |  | > 20
